Target: recombinant human SAE enzyme (Homo sapiens (Human), UniProt Q9UBT2)
Test: SAE HTRF enzyme assay
Type: biochemical
In short: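 HTRF read-out using Eu-cryptate anti-Flag and allophycocyanin anti-GST antibodies, added with EDTA stop buffer and read after 2 h at 24 °C. The preceding reaction ran 105 min at 24 °C: 0.11 nM recombinant SAE, 0.5 μM ATP, Sumo-Flag, Ubc9-GST, pH 7.5. Values given as single-concentration inhibition or IC50.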

Chain of recombinant human SAE enzyme (Q9UBT2 whole entry): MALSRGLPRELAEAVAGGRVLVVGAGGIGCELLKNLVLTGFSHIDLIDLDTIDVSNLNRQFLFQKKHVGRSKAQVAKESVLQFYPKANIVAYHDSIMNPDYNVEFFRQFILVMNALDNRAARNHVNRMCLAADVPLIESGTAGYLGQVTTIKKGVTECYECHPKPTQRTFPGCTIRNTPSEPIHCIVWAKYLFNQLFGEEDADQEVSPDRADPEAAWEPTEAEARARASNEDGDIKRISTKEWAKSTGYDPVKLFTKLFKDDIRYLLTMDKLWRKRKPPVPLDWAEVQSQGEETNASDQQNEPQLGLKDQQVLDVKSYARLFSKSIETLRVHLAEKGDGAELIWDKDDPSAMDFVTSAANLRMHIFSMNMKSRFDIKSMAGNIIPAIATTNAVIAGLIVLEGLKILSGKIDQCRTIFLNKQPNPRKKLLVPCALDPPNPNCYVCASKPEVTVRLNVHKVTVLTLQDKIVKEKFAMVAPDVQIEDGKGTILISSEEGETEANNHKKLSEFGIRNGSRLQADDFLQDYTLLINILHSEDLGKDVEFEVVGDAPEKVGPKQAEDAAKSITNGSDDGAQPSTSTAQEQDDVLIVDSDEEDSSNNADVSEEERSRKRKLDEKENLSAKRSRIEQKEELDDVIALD
Chain of recombinant human SAE enzyme (Q9UBE0 whole entry partner): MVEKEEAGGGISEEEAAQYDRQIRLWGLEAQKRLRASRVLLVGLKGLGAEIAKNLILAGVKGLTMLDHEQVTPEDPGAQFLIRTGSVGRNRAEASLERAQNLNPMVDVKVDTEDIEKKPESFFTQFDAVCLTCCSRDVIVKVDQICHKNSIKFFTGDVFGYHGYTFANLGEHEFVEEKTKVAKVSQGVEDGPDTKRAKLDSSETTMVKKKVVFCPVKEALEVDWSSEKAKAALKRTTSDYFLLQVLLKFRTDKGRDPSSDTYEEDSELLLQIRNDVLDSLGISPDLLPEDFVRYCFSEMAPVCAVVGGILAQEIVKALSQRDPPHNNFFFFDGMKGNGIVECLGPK

Row | SMILES | Percent Inhibition (Concentration 0.111 μM) | IC50 (class symbols A/B/C) [nM] | Percent Inhibition (SAE inhibition at compound concentration 0.111 μM) [%] | IC50 (SAE inhibition, class symbols, legend in nM) [nM]
1 | N[C@H](c1cccc(Br)c1)c1cc(C(=O)c2cncnc2N[C@@H]2C[C@H](COS(N)(=O)=O)[C@@H](O)C2)sc1Cl (single isomer, unassigned) [I-22b, [(1R,2S,4R)-4-{[5-({4-[(R)-amino(3-bromophenyl)methyl]-5-chloro-2-thienyl}carbonyl)pyrimidin-4-yl]amino}-2-hydroxycyclopentyl]methyl sulfamate or [(1R,2S,4R)-4-{[5-({4-[(S)-amino(3-bromophenyl)methyl]-5-chloro-2-thienyl}carbonyl)pyrimidin-4-yl]amino}-2-hydroxycyclopentyl]methyl sulfamate] | 99 | < 10 | – | –
2 | NS(=O)(=O)OCC1CC(Nc2ncncc2C(=O)c2cc(C3(c4cccc(Cl)c4)CCCCO3)cs2)CC1O (mixture of isomers) [I-154, [(1R,2S,4R)-4-{[5-({4-[(2R)-2-(3-chlorophenyl)tetrahydro-2H-pyran-2-yl]-2-thienyl}carbonyl)pyrimidin-4-yl]amino}-2-hydroxycyclopentyl]methyl sulfamate and [(1R,2S,4R)-4-{[5-({4-[(2S)-2-(3-chlorophenyl)tetrahydro-2H-pyran-2-yl]-2-thienyl}carbonyl)pyrimidin-4-yl]amino}-2-hydroxycyclopentyl]methyl sulfamate] | 95 | < 10 | – | –
3 | C[C@@]1(c2csc(C(=O)c3cncnc3N[C@@H]3C[C@H](COS(N)(=O)=O)[C@@H](O)C3)c2)OCCc2ccc(Cl)cc21 (mixture of isomers) [I-317, [(1R,2S,4R)-4-{[5-({4-[(1R)-7-chloro-1-methyl-3,4-dihydro-1H-isochromen-1-yl]-2-thienyl}carbonyl)pyrimidin-4-yl]amino}-2-hydroxycyclopentyl]methyl sulfamate and [(1R,2S,4R)-4-{[5-({4-[(1S)-7-chloro-1-methyl-3,4-dihydro-1H-isochromen-1-yl]-2-thienyl}carbonyl)pyrimidin-4-yl]amino}-2-hydroxycyclopentyl]methyl sulfamate] | – | – | 97 | < 10

Reference: patent publication US10780090B2, “Heteroaryl compounds useful as inhibitors of SUMO activating enzyme” (Millennium Pharmaceuticals, Inc., priority 2014, dated 2020)
